Test results published in patent US20030149088A1, “HIV treatment” (priority 2000, published 2003).
Several values for one entry are separate records, joined by “and”; a condition that tells them apart may be missing. Equal entries are not always repeated.

How the values were obtained:
[1] = tested on: HIV; test: microbe, parasite or virus in culture; assay type: cell-based; details: in vitro acute model
[2] = tested on: HIV virus, ROJO in PBMC; test: Reverse transcriptase activity against ROJO in PBMC; assay type: cell-based; set-up: Reverse Transcriptase Activity, Sample 1-3 / Reverse Transcriptase Activity, Mean: unit not given here; details: for Reverse Transcriptase Activity, Sample 1-3: individual samples
[3] = tested on: Chronic HIV-1 infected cells U1; test: Chronic HIV study, HIV replication in monocytes (U1 cells); assay type: cell-based
Method: (§1) Chronic HIV-1 infected cells U1 were derived from an acute HIV-1 infection of the promonocytic cell line, U937. The chronic HIV-1 infected cells, ACH-2 were derived from an acute HIV-1 infection of the T cell line, A3.01.
(§2) These cells were cultured in medium and the phorbol ester, PMA. PMA causes the cells (both U1 and ACH-2) to be activated and not divide but it also causes the U-1 cells to differentiate. […] Cell viability was measured when these cell lines were treated with the test compound.
(§3) Both cell lines constituitively produce a small amount of HIV-1. ACH-2 cell lines tend to produce more HIV-1 than U1 cells as shown by p-24 ELISA. When either cell line is cultured in the presence of PMA there is an increase in the quantity of HIV-1 produced as measured by the p-24 antigen ELISA.
(§4) In addition, the number of […] positive HIV mRNA expressing cells per microscopic field is measured. Comparisons can be made from these numbers since the same number of cells were adhered to the glass slides for each drug concentration (10×10^6 cells/ml).

[4] = tested on: chronic HIV-1 infected cells, ACH-2; test: Chronic HIV study, T-cell HIV replication (ACH-2 cells); assay type: cell-based; details: increase, not suppression
Method: as §1, §2, §3, §4

[5] = tested on: PBMC; test: Toxicity values, XTT-based evaluation (cell titer O.D.), ROJO in PBMC; details: for Toxicity Values (Cell titer), Sample 1-3: individual samples

SMILES: c1ccc2[nH]c(-c3cscn3)nc2c1 [2-(4-thiazolyl)-1H-benzimidazole]
- inhibition at 60 µg/mL ([1]; Human immunodeficiency virus 1, at 60 μg/ml, read-out: inhibited viral replication): 98%

SMILES: Cc1cn([C@H]2C[C@H](N=[N+]=[N-])[C@@H](CO)O2)c(=O)[nH]c1=O [AZT, reference compound]
- Reverse Transcriptase Activity, % virus control ([2]; 0.0004 μg/ml): 101.5%
- Reverse Transcriptase Activity, Sample 1-3 ([2]; 0.0004 μg/ml): 1.043 and 0.966 and 1.143
- Reverse Transcriptase Activity, % virus control ([2]; 0.0013 μg/ml): 101.4%
- Reverse Transcriptase Activity, % virus control ([2]; 0.004 μg/ml): 98.5%
- Reverse Transcriptase Activity, Mean ([2]; 0.004 μg/ml): 1.019
- Reverse Transcriptase Activity, Sample 1-3 ([2]; 0.004 μg/ml): 1.005 and 1.004 and 1.048
- Reverse Transcriptase Activity, % virus control ([2]; 0.013 μg/ml): 101.2%
- Reverse Transcriptase Activity, Sample 1-3 ([2]; 0.013 μg/ml): 1.024 and 1.061 and 1.056
- Reverse Transcriptase Activity, % virus control ([2]; 0.04 μg/ml): 0.7%
- Reverse Transcriptase Activity, Mean ([2]; 0.04 μg/ml): 168
- Reverse Transcriptase Activity, Sample 1-3 ([2]; 0.04 μg/ml): 176 and 108 and 220
- Reverse Transcriptase Activity, % virus control ([2]; 0.13 μg/ml): 0.5%
- Reverse Transcriptase Activity, Mean ([2]; 0.13 μg/ml): 110.7
- Reverse Transcriptase Activity, Sample 1-3 ([2]; 0.13 μg/ml): 108 and 168 and 56
- Reverse Transcriptase Activity, % virus control ([2]; 0.4 μg/ml): 0.7%
- Reverse Transcriptase Activity, Mean ([2]; 0.4 μg/ml): 172
- Reverse Transcriptase Activity, Sample 1-3 ([2]; 0.4 μg/ml): 340 and 80 and 96
- Reverse Transcriptase Activity, % virus control ([2]; 1.3 μg/ml): .04%
- Reverse Transcriptase Activity, Mean ([2]; 1.3 μg/ml): 93.3
- Reverse Transcriptase Activity, Sample 1-3 ([2]; 1.3 μg/ml): 68 and 120 and 92
- Reverse Transcriptase Activity, % virus control ([2]; 4 μg/ml): 0.4%
- Reverse Transcriptase Activity, Mean ([2]; 4 μg/ml): 98.7
- Reverse Transcriptase Activity, Sample 1-3 ([2]; 4 μg/ml): 108 and 104 and 84
- inhibited viral replication ([1]; at 1 μg/ml): 98%

SMILES: COC(=O)Nc1nc2ccccc2[nH]1 [Carbendazim, 2-(methoxycarbonylamino)benzimidazole]
- Reverse Transcriptase Activity, % virus control ([2]; 0.01 μg/ml): 110.4%
- Reverse Transcriptase Activity, Mean ([2]; 0.01 μg/ml): 26107
- Reverse Transcriptase Activity, Sample 1-3 ([2]; 0.01 μg/ml): 24174 and 32124 and 22024
- Reverse Transcriptase Activity, % virus control ([2]; 0.032 μg/ml): 96.6%
- Reverse Transcriptase Activity, Mean ([2]; 0.032 μg/ml): 22851
- Reverse Transcriptase Activity, Sample 1-3 ([2]; 0.032 μg/ml): 23225 and 17108 and 19000
- Reverse Transcriptase Activity, % virus control ([2]; 0.1 μg/ml): 74.1%
- Reverse Transcriptase Activity, Mean ([2]; 0.1 μg/ml): 17513
- Reverse Transcriptase Activity, Sample 1-3 ([2]; 0.1 μg/ml): 1394.0 and 16747 and 12569
- Reverse Transcriptase Activity, % virus control ([2]; 0.32 μg/ml): 47.1%
- Reverse Transcriptase Activity, Mean ([2]; 0.32 μg/ml): 11143
- Reverse Transcriptase Activity, Sample 1-3 ([2]; 0.32 μg/ml): 200 and 8787 and 11249
- Reverse Transcriptase Activity, % virus control ([2]; 1 μg/ml): 3.7%
- Reverse Transcriptase Activity, Mean ([2]; 1 μg/ml): 885.3
- Reverse Transcriptase Activity, Sample 1-3 ([2]; 1 μg/ml): 1394 and 685.0 and 577.0
- Reverse Transcriptase Activity, % virus control ([2]; 3.2 μg/ml): 0.6%
- Reverse Transcriptase Activity, Mean ([2]; 3.2 μg/ml): 138.7
- Reverse Transcriptase Activity, Sample 1-3 ([2]; 3.2 μg/ml): 200 and 100 and 116
- Reverse Transcriptase Activity, % virus control ([2]; 10 μg/ml): 0.6%
- Reverse Transcriptase Activity, Mean ([2]; 10 μg/ml): 153.3
- Reverse Transcriptase Activity, Sample 1-3 ([2]; 10 μg/ml): 136 and 216 and 108
- Reverse Transcriptase Activity, % virus control ([2]; 32 μg/ml): 0.6%
- Reverse Transcriptase Activity, Mean ([2]; 32 μg/ml): 130.7
- Reverse Transcriptase Activity, Sample 1-3 ([2]; 32 μg/ml): 124 and 180 and 88.0
- Reverse Transcriptase Activity, % virus control ([2]; 100 μg/ml): 0.5%
- Reverse Transcriptase Activity, Mean ([2]; 100 μg/ml): 122.7
- Reverse Transcriptase Activity, Sample 1-3 ([2]; 100 μg/ml): 132 and 84.0 and 152.0
- suppressed replication in the HIV monocytes [3]: 9%
- T-cell HIV replication was increased [4]: 44%
- inhibition at 4 µg/mL ([1]; Human immunodeficiency virus 1, at 4 μg/ml, read-out: inhibited viral replication): 100%
- Toxicity Values (Cell titer), Mean ([5]; 0.01 μg/ml): 1.138 O.D. @ 490/650 nm
- Toxicity Values, % cell control ([5]; 0.01 μg/ml): 109.9%
- Toxicity Values (Cell titer), Sample 1-3 ([5]; 0.01 μg/ml): 1.115 O.D. @ 490/650 nm and 1.180 O.D. @ 490/650 nm and 1.118 O.D. @ 490/650 nm
- Toxicity Values (Cell titer), Mean ([5]; 0.032 μg/ml): 1.182 O.D. @ 490/650 nm
- Toxicity Values, % cell control ([5]; 0.032 μg/ml): 114.2%
- Toxicity Values (Cell titer), Sample 1-3 ([5]; 0.032 μg/ml): 1.143 O.D. @ 490/650 nm and 1.198 O.D. @ 490/650 nm and 1.204 O.D. @ 490/650 nm
- Toxicity Values (Cell titer), Mean ([5]; 0.1 μg/ml): 1.157 O.D. @ 490/650 nm
- Toxicity Values, % cell control ([5]; 0.1 μg/ml): 111.8%
- Toxicity Values (Cell titer), Sample 1-3 ([5]; 0.1 μg/ml): 1.145 O.D. @ 490/650 nm and 1.080 O.D. @ 490/650 nm and 1.246 O.D. @ 490/650 nm
- Toxicity Values (Cell titer), Mean ([5]; 0.32 μg/ml): 1.049 O.D. @ 490/650 nm
- Toxicity Values, % cell control ([5]; 0.32 μg/ml): 101.4%
- Toxicity Values (Cell titer), Sample 1-3 ([5]; 0.32 μg/ml): 1.031 O.D. @ 490/650 nm and 1.050 O.D. @ 490/650 nm and 1.067 O.D. @ 490/650 nm
- Toxicity Values (Cell titer), Mean ([5]; 1 μg/ml): 1.004 O.D. @ 490/650 nm
- Toxicity Values, % cell control ([5]; 1 μg/ml): 97.0%
- Toxicity Values (Cell titer), Sample 1-3 ([5]; 1 μg/ml): 1.019 O.D. @ 490/650 nm and 1.003 O.D. @ 490/650 nm and 0.991 O.D. @ 490/650 nm
- Toxicity Values (Cell titer), Mean ([5]; 3.2 μg/ml): 0.992 O.D. @ 490/650 nm
- Toxicity Values, % cell control ([5]; 3.2 μg/ml): 95.8%
- Toxicity Values (Cell titer), Sample 1-3 ([5]; 3.2 μg/ml): 1.013 O.D. @ 490/650 nm and 1.003 O.D. @ 490/650 nm and 0.959 O.D. @ 490/650 nm
- Toxicity Values (Cell titer), Mean ([5]; 10 μg/ml): 0.944 O.D. @ 490/650 nm
- Toxicity Values, % cell control ([5]; 10 μg/ml): 91.2%
- Toxicity Values (Cell titer), Sample 1-3 ([5]; 10 μg/ml): 1.001 O.D. @ 490/650 nm and 0.858 O.D. @ 490/650 nm and 0.973 O.D. @ 490/650 nm
- Toxicity Values (Cell titer), Mean ([5]; 32 μg/ml): 0.845 O.D. @ 490/650 nm
- Toxicity Values, % cell control ([5]; 32 μg/ml): 81.6%
- Toxicity Values (Cell titer), Sample 1-3 ([5]; 32 μg/ml): 0.864 O.D. @ 490/650 nm and 0.835 O.D. @ 490/650 nm and 0.836 O.D. @ 490/650 nm
- Toxicity Values (Cell titer), Mean ([5]; 100 μg/ml): 0.807 O.D. @ 490/650 nm
- Toxicity Values, % cell control ([5]; 100 μg/ml): 77.9%
- Toxicity Values (Cell titer), Sample 1-3 ([5]; 100 μg/ml): 0.839 O.D. @ 490/650 nm and 0.782 O.D. @ 490/650 nm and 0.799 O.D. @ 490/650 nm
